Assay [1] has as its target T1, human ETB receptor (Homo sapiens, UniProt P24530).
T1 construct: expressed in transfected cells; host or cells: COS7 cells
T1 sequence (P24530 27-442): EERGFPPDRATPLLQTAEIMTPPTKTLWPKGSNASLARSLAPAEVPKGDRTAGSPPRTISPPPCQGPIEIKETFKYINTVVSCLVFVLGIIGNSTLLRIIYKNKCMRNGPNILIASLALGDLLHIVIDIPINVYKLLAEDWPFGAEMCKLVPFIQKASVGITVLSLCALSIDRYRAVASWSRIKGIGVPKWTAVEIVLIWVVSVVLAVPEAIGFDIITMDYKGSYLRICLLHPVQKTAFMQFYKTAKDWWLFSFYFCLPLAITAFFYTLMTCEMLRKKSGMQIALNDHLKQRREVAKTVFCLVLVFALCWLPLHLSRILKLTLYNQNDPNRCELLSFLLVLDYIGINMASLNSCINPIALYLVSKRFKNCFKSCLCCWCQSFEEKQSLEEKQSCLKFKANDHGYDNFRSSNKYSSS
The experiment in a line: Binding Test #2: inhibition of 125I-ET-1 binding to ETB receptors (transfected COS7 cell membranes). To be noted: read-out: ETB. From the text:
(§1) Compounds that are potential endothelin antagonists are identified by testing their ability to compete with ^125I-labeled ET-1 for binding to human ETA receptors or ETB receptors present on isolated cell membranes. The effectiveness of the test compound as an antagonist or agonist of the biological tissue response of endothelin can also be assessed by measuring the effect on endothelin induced contraction of isolated rat thoracic aortic rings. The ability of the compounds to act as antagonists or agonists for ETB receptors can be assess by testing the ability of the compounds are to inhibit endothelin-1 induced prostacyclin release from cultured bovine aortic endothelial cells.
B. Endothelin Binding Inhibition—Binding Test #2: Inhibition of Binding to ETB Receptors
COS7 cells were transfected with DNA encoding the ETB receptor, The resulting cells, which express the human ETB receptor, were grown to confluence in T-150 flasks. Membrane was prepared as described above. The binding assay was performed as described above using the membrane preparation diluted with binding buffer to a concentration of 1 μg/50 μl.
Briefly, the COS7 cells, described above, that had been transfected with DNA encoding the ETB receptor and express the human ETB receptor on their surfaces were grown to confluence in T-1 75 flasks. Cells from multiple flasks were collected by scraping, pooled and centrifuged for 10 min at 190×g. The cells were resuspended in phosphate buffered saline (PBS) containing 10 mM EDTA using a Tenbroeck homogenizer. The suspension was centrifuged at 4° C. 57,800 X g for 15 min, the pellet was resuspended in 5 ml of buffer A (5mM HEPES buffer, pH 7.4 containing aprotinin (100 KIU/ml)) and then frozen and thawed once. Five ml of Buffer B (5 mM HEPES Buffer, pH 7.4 containing 10 mM MnCl2 and 0.001% deoxyribonuclease Type 1) was added, the suspension mixed by inversion and then incubated at 37° C. for 30 minutes. The mixture was centrifuged at 57,800×g as described above, the pellet washed twice with buffer A and then resuspended in buffer C (30 mM HEPES buffer, pH 7.4 containing aprotinin (100 KIU/ml) to give a final protein concentration of 2 mg/ml.
The binding assay was performed as described above using the membrane preparation diluted to give 1 μg/50 μl of binding buffer.

For assay [2], the target named is T2, human ETA receptors (Homo sapiens, UniProt P25101).
T2 construct: endogenous in cells; host or cells: TE 671 cells (ATCC HTB 139)
T2 sequence (P25101 21-427): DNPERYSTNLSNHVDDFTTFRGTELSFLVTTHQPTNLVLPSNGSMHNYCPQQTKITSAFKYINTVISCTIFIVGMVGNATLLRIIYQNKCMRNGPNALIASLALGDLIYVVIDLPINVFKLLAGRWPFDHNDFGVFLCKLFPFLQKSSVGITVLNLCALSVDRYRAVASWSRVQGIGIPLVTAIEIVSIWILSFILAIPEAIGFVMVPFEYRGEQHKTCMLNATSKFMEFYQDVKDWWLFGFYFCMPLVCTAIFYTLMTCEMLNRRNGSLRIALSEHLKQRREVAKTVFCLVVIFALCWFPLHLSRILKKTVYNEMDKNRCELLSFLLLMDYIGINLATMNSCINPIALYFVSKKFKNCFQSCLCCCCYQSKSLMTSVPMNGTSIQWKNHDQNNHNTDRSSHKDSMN
In words: Binding Test #1: inhibition of 125I-ET-1 binding to ETA receptors (TE 671 cell membranes). As to conditions: read-out: ETA.
Excerpt: as §1
A. Endothelin Binding Inhibition—Binding Test #1: Inhibition of Binding to ETA Receptors
TE 671 cells (ATCC Accession No. HTB 139) express ETA receptors. These cells were grown to confluence in T-175 flasks. Cells from multiple flasks were collected by scraping, pooled and centrifuged for 10 min at 190×g. The cells were resuspended in phosphate buffered saline (PBS) containing 10 mM EDTA using a Tenbroeck homogenizer. The suspension was centrifuged at 4° C. at 57,800×g for 15 min, the pellet was resuspended in 5 ml of buffer A (5 mM HEPES buffer, pH 7.4 containing aprotinin (100 KIU/ml)) and then frozen and thawed once. 5 ml of Buffer B (5 mM HEPES Buffer, pH 7.4 containing 10 mM MnCl2 and 0.001% deoxyribonuclease Type 1) was added, the suspension mixed by inversion and then incubated at 37° C. for 30 minutes. The mixture was centrifuged at 57,800×g as described above, the pellet washed twice with buffer A and then resuspended in buffer C (30 mM HEPES buffer, pH 7.4 containing aprotinin (100 KIU/ml) to give a final protein concentration of 2 mg/ml and stored at −70° C. until use.
The membrane suspension was diluted with binding buffer (30 mM HEPES buffer, pH 7.4 containing 150 mM NaCl, 5mM MgCl2, 0.5% Bacitracin) to a concentration of 8 μg/50 μl. ^125I-endothelin-1 (3,000 cpm, […]) was added to 50 μL of either: (A) endothelin-1 (for non specific binding) to give a final concentration 80 nM); (B) binding buffer (for total binding); or (C) a test compound (final concentration 1 nM to 100 μM). The membrane suspension (50 μL), containing up to 8 μg of membrane protein, was added to each of (A), (B), or (C). Mixtures were shaken, and incubated at 4° C. for 16-18 hours, and then centrifuged at […] for 25 min at 2,500×g. Alternatively, the incubation was conducted at 24° C. […] This, must be kept in mind when comparing IC50 concentrations among compounds provided herein.
The supernatant, containing unbound radioactivity, was decanted and the pellet counted on a Genesys multiwell gamma counter. The degree of inhibition of binding (D) was calculated according to the following equation: [formula]
Each test was generally performed in triplicate.

Setting [3] is: Table 1, † incubation at 24° C.
Setting [4] is: Table 2, † incubation at 24° C.

Molecules are shown by their SMILES. Read-outs that look alike come from different tables or passages of the source.

As to `Cc1ccc(Cc2cc(-c3ccc(C)cc3)sc2S(=O)(=O)Nc2onc(C)c2Br)cc1` [N-(4-bromo-3-methyl-5-isoxazolyl)-3-(4-methylbenzyl)-5-(4-tolyl)thiophene-2-sulfonamide], the IC50 in assay [1] (setting [3]) was 1560 nM; in assay [2] (setting [3]), 4690 nM.
In the case of `Cc1noc(NS(=O)(=O)c2ccsc2NC(=O)Nc2sccc2S(=O)(=O)Nc2onc(C)c2C)c1C` [N,N′-bis{3-[3,4-dimethyl-5-isoxazolyl)aminosulfonyl]thien-2-yl}urea], the IC50 amounted to 3700 ± 2700 nM in assay [1] (Table 1, incubation at 4° C.); 5900 nM in assay [1] (setting [3]); 1010 ± 1030 nM in assay [2] (Table 1, incubation at 4° C.); 2700 nM in assay [2] (setting [3]).
As to `Cc1noc(NS(=O)(=O)c2cc(-c3ccccc3)cs2)c1Br` [N-(4-bromo-3-methyl-5-isoxazolyl)-4-phenylthiophene-2-sulfonamide], the IC50 in assay [1] (Table 1, incubation at 4° C.) is 1170 nM; in assay [2] (Table 1, incubation at 4° C.), 224 nM.
With `Cc1noc(NS(=O)(=O)c2sccc2CC=Cc2cc3c(cc2CO)OCO3)c1Br` [N-(4-bromo-3-methyl-5-isoxazolyl)-3-[2-(hydroxymethyl)-4,5-(methylenedioxy)cinnamyl]thiophene-2-sulfonamide], the IC50 in assay [1] (setting [3]) is 3240 nM; in assay [2] (setting [3]), 79.5 nM.
Consider `Cc1noc(NS(=O)(=O)c2ccsc2C(=O)OC2CCCCC2)c1Cl` [N-(4-chloro-3-methyl-5-isoxozolyl-2-(cyclohexyloxycarbonyl)thiophene-3-sulfonamide], for which the results for the IC50 in assay [1] (setting [3]) and in assay [2] (setting [3]) were 34000 nM and 440 nM, respectively.
For `Cc1noc(NS(=O)(=O)c2ccsc2C(=O)O)c1C` [N-(3,4-dimethyl-5-isoxazolyl)-2-(carboxyl)thiophene-3-sulfonamide], the IC50 in assay [1] (Table 1, incubation at 4° C.) was above 100000 nM; in assay [2] (Table 1, incubation at 4° C.), 2640 nM.
Regarding `Cc1noc(NS(=O)(=O)c2cccn2-c2ccccc2)c1Br` [N-(4-Bromo-3-methyl-5-isoxazolyl)-1-(phenyl)pyrrole-2-sulfonamide], the IC50 was determined as 8700 nM in assay [1] (Table 1, incubation at 4° C.) and 18100 nM in assay [2] (Table 1, incubation at 4° C.).
`Cc1cc2c(cc1C=CCc1ccsc1S(=O)(=O)Nc1onc(C)c1Br)OCO2` [N-(4-bromo-3-methyl-5-isoxazolyl)-3-[2-methyl-4,5-(methylenedioxy)cinnamyl]thiophene-2-sulfonamide]: the IC50 in assay [1] (setting [3]) is around 6000 nM; in assay [2] (setting [3]) it was around 100 nM.
For `Cc1ccc(NC(=O)c2ccc(S(=O)(=O)Nc3onc(C)c3Br)s2)cc1` [N-(4-bromo-3-methyl-5-isoxazolyl)-5-(4-tolyl)aminocarbonyl)thiophene-2-sulfonamide] the same measures were 8600 nM and 28000 nM.
`Cc1onc(NS(=O)(=O)c2ccc(-c3ccccc3)cc2)c1Br` [N-(4-bromo-5-methyl-3-isoxazolyl)-4-biphenylsulfonamide]: the IC50 stood at 290 ± 20 nM in assay [1] (Table 2, incubation at 4° C.); 1780 nM in assay [1] (setting [4]); 6400 ± 2000 nM in assay [2] (Table 2, incubation at 4° C.); 49000 nM in assay [2] (setting [4]).
Consider `Cc1noc(NS(=O)(=O)c2cc3ccccc3n2C)c1Br` [N-(4-bromo-3-methyl-5-isoxazolyl)-1-methylindole-2-sulfonamide], for which the IC50 was around 100000 nM in assay [1] (setting [3]) and 77000 nM in assay [2] (setting [3]).
For `COc1ccc2c(S(=O)(=O)Nc3onc(C)c3Cl)c(Cc3ccc4c(c3)OCO4)sc2c1` [N-(4-chloro-3-methyl-5-isoxazolyl)-6-methoxy-2-[3,4-(methylenedioxy)benzyl]benzo[b]thiophene-3-sulfonamide] the same measures were 2390 nM and around 2000 nM.
Turning to `Cc1noc(NS(=O)(=O)c2ccc(-c3cccs3)s2)c1Br` [N-(4-bromo-3-methyl-5-isoxazolyl)-5-(2′-thienyl)thiophene-2-sulfonamide], the IC50 was determined as 363 nM in assay [1] (Table 1, incubation at 4° C.) and 5100 nM in assay [2] (Table 1, incubation at 4° C.).
For `CCCCCCCCCCCCCc1c(C(F)(F)F)noc1NS(=O)(=O)c1ccc(-c2ccccc2)cc1` [N-(4-Tridecyl-3-trifluoromethyl-5-isoxazolyl)-4-biphenylsulfonamide], the IC50 in assay [1] (Table 2, incubation at 4° C.) amounted to 990 ± 200 nM; in assay [1] (setting [4]), 950 nM; in assay [2] (Table 2, incubation at 4° C.), 34000 ± 9000 nM; in assay [2] (setting [4]), 33000 nM.
With `Cc1ccsc1S(=O)(=O)Nc1onc(C)c1Br` [N-(4-bromo-3-methyl-5-isoxazolyl)-3-methylthiophene-2-sulfonamide], the IC50 worked out at 7150 nM in assay [1] (Table 1, incubation at 4° C.) and 651 nM in assay [2] (Table 1, incubation at 4° C.).
Turning to `CC(=O)OCc1c(C)cc(C)c(NC(=O)c2sccc2S(=O)(=O)Nc2onc(C)c2Cl)c1C` [N-(4-chloro-3-methyl-5-isoxazolyl)-2-(3-acetoxymethyl-2,4,6-trimethylphenylaminocarbonyl)thiophene-3-sulfonamide], the IC50 was above 100000 nM in assay [1] (setting [3]) and 0.6 nM in assay [2] (setting [3]).
Consider `Cc1noc(NS(=O)(=O)c2cc(Br)c(Cl)s2)c1Br` [4-bromo-5-chloro-N-(4-Bromo-3-methyl-5-isoxazolyl)-thiophene-2-sulfonamide], for which the IC50 amounted to 2670 nM in assay [1] (Table 1, incubation at 4° C.) and 359 nM in assay [2] (Table 1, incubation at 4° C.).
On to `Cc1noc(NS(=O)(=O)c2ccc(-c3ccccc3)s2)c1Br` [N-(4-bromo-3-methyl-5-isoxazolyl)-5-phenylthiophene-2-sulfonamide], for which the IC50 in assay [1] (Table 1, incubation at 4° C.) turned out to be 417 nM; in assay [1] (setting [3]), 2400 nM; in assay [2] (Table 1, incubation at 4° C.) it was 3530 nM; in assay [2] (setting [3]), 36600 nM.
Regarding `Cc1noc(NS(=O)(=O)c2ccsc2)c1Br` [N-(4-bromo-3-methyl-5-isoxazolyl)thiophene-3-sulfonamide], the IC50 came to 23400 nM in assay [1] (Table 1, incubation at 4° C.) and 135 nM in assay [2] (Table 1, incubation at 4° C.).

The values above are taken from patent US6683103B2, “Sulfonamides for treatment of endothelin-mediated disorders” (Texas Biotechnology Corporation, priority 1997, dated 2004).
